Experimental data as given in patent publication US11414422B2, “Substituted pyrido[4,3-b]indoles and azepino[4,5-b]indoles as inhibitors of cGAS” (The Rockefeller University, priority 2018, dated 2022).

These molecules were tested against T1, h-cGAS (Homo sapiens, UniProt Q8N884) (assay: cGAS biochemical assay, RapidFire 365 mass spectrometry (RF-MS)). Settings: full-length h-cGAS 100 nM, dsDNA 25 nM, ATP and GTP 100 μM, 7 h at RT.
T1 construct: The final concentration of full-length h-cGAS, dsDNA, ATP, and GTP were 100 nM
T1 sequence (Q8N884 whole entry): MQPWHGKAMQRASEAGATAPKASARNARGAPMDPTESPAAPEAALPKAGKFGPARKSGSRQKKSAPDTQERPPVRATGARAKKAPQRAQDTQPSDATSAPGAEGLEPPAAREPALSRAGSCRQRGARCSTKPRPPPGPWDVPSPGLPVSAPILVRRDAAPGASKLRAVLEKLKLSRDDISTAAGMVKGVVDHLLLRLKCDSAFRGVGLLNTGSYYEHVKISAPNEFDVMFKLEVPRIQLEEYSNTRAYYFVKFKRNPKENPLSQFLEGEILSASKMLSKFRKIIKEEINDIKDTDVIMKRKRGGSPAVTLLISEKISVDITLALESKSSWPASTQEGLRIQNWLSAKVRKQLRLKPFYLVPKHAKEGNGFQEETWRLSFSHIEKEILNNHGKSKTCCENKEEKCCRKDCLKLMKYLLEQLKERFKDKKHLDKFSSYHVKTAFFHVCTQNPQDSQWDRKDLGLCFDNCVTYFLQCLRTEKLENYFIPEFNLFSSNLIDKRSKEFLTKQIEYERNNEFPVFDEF

| SMILES | IC50 [nM] |
| --- | --- |
| COCC(=O)N1CCc2[nH]c3c(Cl)cc(Cl)cc3c2C1 [TDI-004576] | 3080 |
| COCC(=O)N1CCc2c(c3cc(Cl)cc(Cl)c3n2C)C1 [TDI-004581] | 2410 |
| COCC(=O)N1CCc2c(c3cc(Cl)cc(Cl)c3n2CC(F)(F)F)C1 [TDI-005021] | 13900 |
| COCC(=O)N1CCc2[nH]c3c(Cl)cccc3c2C1 [TDI-005323] | 5860 |
| COCC(=O)N1CCc2[nH]c3cc(Cl)ccc3c2C1 [TDI-005324] | 4020 |
| COCC(=O)N1CCc2[nH]c3c(Cl)ccc(Cl)c3c2C1 [TDI-005325] | 3230 |
| CCOCC(=O)N1CCc2[nH]c3c(Cl)c(Cl)ccc3c2C1 [TDI-005716] | 1510 |
| COCCOCC(=O)N1CCc2[nH]c3c(Cl)c(Cl)ccc3c2C1 [TDI-005719] | 3290 |
| O=C(C1CCCO1)N1CCc2[nH]c3c(Cl)c(Cl)ccc3c2C1 (stereo not shown) [TDI-005745] | 3080 |
| COCC(=O)N1CCc2[nH]c3c(Br)c(Cl)ccc3c2C1 [TDI-005776] | 203 |
| COCC(=O)N1CCc2[nH]c3c(OC)c(Cl)ccc3c2C1 [TDI-005777] | 24700 |
| COCC(=O)N1CCc2[nH]c3c(Cl)c(Br)ccc3c2C1 [TDI-005854] | 198 |
| COCC(=O)N1CCc2[nH]c3cc(Br)ccc3c2C1 [TDI-005855] | 1740 |
| COCC(=O)N1CCc2[nH]c3c(Cl)c(C#N)ccc3c2C1 [TDI-006171] | 7690 |
| COCC(=O)N1CCc2[nH]c3c(C#N)c(Cl)ccc3c2C1 [TDI-006182] | 570 |
| O=C(CO)N1CCc2[nH]c3c(Cl)c(Cl)ccc3c2CC1 [TDI-006183] | 469 |
| O=C(CO)N1CCc2[nH]c3c(Br)c(Cl)ccc3c2C1 [TDI-006261] | 140 |
| Cc1ccc2c3c([nH]c2c1C)CCN(C(=O)CO)C3 [TDI-006339] | 7630 |
| O=C(CO)N1CCc2[nH]c3c(F)c(Cl)ccc3c2C1 [TDI-006340] | 129 |
| O=C(CO)N1CCc2[nH]c3c(Cl)c(Br)ccc3c2C1 [TDI-006354] | 43 |
| Cc1ccc2c3c([nH]c2c1Cl)CCN(C(=O)CO)C3 [TDI-006358] | 597 |
| O=C(CO)N1CCc2[nH]c3c(Cl)c(F)ccc3c2C1 [TDI-006359] | 440 |

| SMILES | IC50 [nM] |
| --- | --- |
| Cc1c(Cl)ccc2c3c([nH]c12)CCN(C(=O)CO)C3 [TDI-006360] | 327 |
| Cn1c2c(c3ccc(Cl)c(Cl)c31)CN(C(=O)CO)CC2 [TDI-006366] | 201 |
| COc1cc2c3c([nH]c2c(Cl)c1Cl)CCN(C(=O)CO)C3 [TDI-006528] | 31 |
| O=C(CO)N1CCc2[nH]c3c(F)c(Br)ccc3c2C1 [TDI-006529, 1-(7-Bromo-6-fluoro-1,3,4,5-tetrahydro-2H-pyrido[4,3-b]indol-2-yl)-2-hydroxyethan-1-one] | 39 |
| COc1cc(Cl)c(Cl)c2[nH]c3c(c12)CN(C(=O)CO)CC3 [TDI-006622] | 49 |
| C=Cc1ccc2c3c([nH]c2c1F)CCN(C(=O)CO)C3 [TDI-006923] | 19300 |
| N#Cc1c(Cl)ccc2c3c([nH]c12)CCN(C(=O)CO)C3 [TDI-006931] | 402 |
| N#Cc1ccc2c3c([nH]c2c1C#N)CCN(C(=O)CO)C3 [TDI-006932] | > 25000 |
| O=C(CO)N1CCc2[nH]c3c(F)c(Cl)c(Br)cc3c2C1 [TDI-007362] | 591 |
| C#Cc1ccc2c3c([nH]c2c1F)CCN(C(=O)CO)C3 [TDI-007433] | 1450 |
| O=C(CO)N1CCc2[nH]c3c(Cl)c(Cl)cc(-c4ccn[nH]4)c3c2C1 [TDI-007457] | 54.1 |
| N#Cc1cc2c3c([nH]c2c(F)c1Cl)CCN(C(=O)CO)C3 [TDI-007542] | 1230 |
| O=C(CO)N1CCc2[nH]c3c(F)c(Cl)c(F)cc3c2C1 [TDI-007544] | 166 |
| CC1CN(C(=O)CO)Cc2c1[nH]c1c(Cl)c(Cl)ccc21 (stereo not shown) [TDI-007553] | 300 |
| O=C(CO)N1CCc2[nH]c3c(F)c(Cl)c(N4CCC4)cc3c2C1 [TDI-007560] | 6740 |
| C[C@H]1CN(C(=O)CO)Cc2c1[nH]c1c(Cl)c(Cl)ccc21 [TDI-007575] | 174 |
| C[C@@H]1CN(C(=O)CO)Cc2c1[nH]c1c(Cl)c(Cl)ccc21 [TDI-007576] | 323 |
| N#Cc1cc(Cl)c(Cl)c2[nH]c3c(c12)CN(C(=O)CO)CC3 [TDI-007586] | 352 |
| Cn1c2c(c3c(-c4cn[nH]c4)cc(Cl)c(Cl)c31)CN(C(=O)CO)CC2 [TDI-007945] | 125 |
| COCC(=O)N1CCc2c(c3c(-c4cn[nH]c4)cc(Cl)c(Cl)c3n2C)C1 [TDI-008026] | 203 |
| COCC(=O)N1CCc2c(c3ccc(Br)c(F)c3n2C)C1 [TDI-008034] | 401 |
| Cn1c2c(c3ccc(Br)c(F)c31)CN(C(=O)CO)CC2 [TDI-008061] | 131 |

| SMILES | IC50 [nM] |
| --- | --- |
| CCn1c2c(c3ccc(Br)c(F)c31)CN(C(=O)CO)CC2 [TDI-008062] | 1030 |
| O=C(CO)N1CCc2[nH]c3c(Cl)c(Cl)cc(-c4ccoc4)c3c2C1 [TDI-008069] | 84.8 |
| O=C(CO)N1CCc2[nH]c3c(Cl)c(Cl)cc(-c4ccncc4)c3c2C1 [TDI-008072] | 97.5 |
| Cn1cccc1-c1cc(Cl)c(Cl)c2[nH]c3c(c12)CN(C(=O)CO)CC3 [TDI-008075] | 469 |
| Cc1[nH]ncc1-c1cc(Cl)c(Cl)c2[nH]c3c(c12)CN(C(=O)CO)CC3 [TDI-008076] | 11400 |
| O=C(CO)N1CCc2[nH]c3c(Cl)c(Cl)cc(C4=CCCCO4)c3c2C1 [TDI-008078] | 31.8 |
| O=C(CO)N1CCc2[nH]c3c(Cl)c(Cl)cc(C4=CCOCC4)c3c2C1 [TDI-008079] | 890 |
| O=C(CO)N1CCc2[nH]c3c(Cl)c(Cl)cc(-c4ccsc4)c3c2C1 [TDI-008080] | 66.8 |
| O=C(CO)N1CCc2[nH]c3c(Cl)c(Cl)cc(-c4cccs4)c3c2C1 [TDI-008081] | 47.9 |
| Nc1ccccc1-c1cc(Cl)c(Cl)c2[nH]c3c(c12)CN(C(=O)CO)CC3 [TDI-008082] | 322 |
| Nc1ccc(-c2cc(Cl)c(Cl)c3[nH]c4c(c23)CN(C(=O)CO)CC4)cc1 [TDI-008083] | 20.3 |
| O=C(CO)N1CCc2[nH]c3c(Cl)c(Cl)cc(-c4ccccc4O)c3c2C1 [TDI-008084] | 258 |
| O=C(CO)N1CCc2[nH]c3c(Cl)c(Cl)cc(-c4cccc(O)c4)c3c2C1 [TDI-008085] | 30.9 |
| Nc1ncccc1-c1cc(Cl)c(Cl)c2[nH]c3c(c12)CN(C(=O)CO)CC3 [TDI-008086] | 2050 |
| Cc1ncc(-c2cc(Cl)c(Cl)c3[nH]c4c(c23)CN(C(=O)CO)CC4)cn1 [TDI-008088] | 56.9 |
| O=C(CO)N1CCc2[nH]c3c(Cl)c(Cl)cc(-c4ccc(F)cc4)c3c2C1 [TDI-008089] | 64.4 |
| O=C(CO)N1CCc2[nH]c3c(Cl)c(Cl)cc(-c4ccccc4F)c3c2C1 [TDI-008090] | 26.7 |
| O=C(CO)N1CCc2[nH]c3c(Cl)c(Cl)cc(-c4cccc(F)c4)c3c2C1 [TDI-008091] | 31 |
| Cc1nn(C)cc1-c1cc(Cl)c(Cl)c2[nH]c3c(c12)CN(C(=O)CO)CC3 [TDI-008092] | 1840 |
| Cc1cc(-c2cc(Cl)c(Cl)c3[nH]c4c(c23)CN(C(=O)CO)CC4)nn1C [TDI-008093] | 330 |
| Cc1c(-c2cc(Cl)c(Cl)c3[nH]c4c(c23)CN(C(=O)CO)CC4)cnn1C [TDI-008094] | 371 |
| Cc1cc(-c2cc(Cl)c(Cl)c3[nH]c4c(c23)CN(C(=O)CO)CC4)n(C)n1 [TDI-008095] | 929 |

| SMILES | IC50 [nM] |
| --- | --- |
| Cc1noc(C)c1-c1cc(Cl)c(Cl)c2[nH]c3c(c12)CN(C(=O)CO)CC3 [TDI-008096] | 5950 |
| N#Cc1ccccc1-c1cc(Cl)c(Cl)c2[nH]c3c(c12)CN(C(=O)CO)CC3 [TDI-008097] | 42.2 |
| N#Cc1cccc(-c2cc(Cl)c(Cl)c3[nH]c4c(c23)CN(C(=O)CO)CC4)c1 [TDI-008098] | 85.3 |
| N#Cc1ncc(-c2cc(Cl)c(Cl)c3[nH]c4c(c23)CN(C(=O)CO)CC4)cn1 [TDI-008100] | 5270 |
| CNc1ccc(-c2cc(Cl)c(Cl)c3[nH]c4c(c23)CN(C(=O)CO)CC4)cn1 [TDI-008101] | 105 |
| COc1cccc(-c2cc(Cl)c(Cl)c3[nH]c4c(c23)CN(C(=O)CO)CC4)n1 [TDI-008102] | 40.2 |
| COc1cccnc1-c1cc(Cl)c(Cl)c2[nH]c3c(c12)CN(C(=O)CO)CC3 [TDI-008103] | 44.1 |
| COc1ccnc(-c2cc(Cl)c(Cl)c3[nH]c4c(c23)CN(C(=O)CO)CC4)c1 [TDI-008104] | 95.2 |
| COc1ccc(-c2cc(Cl)c(Cl)c3[nH]c4c(c23)CN(C(=O)CO)CC4)nc1 [TDI-008105] | 107 |
| COc1cc(-c2cc(Cl)c(Cl)c3[nH]c4c(c23)CN(C(=O)CO)CC4)ccn1 [TDI-008106] | 49.3 |
| COc1cncc(-c2cc(Cl)c(Cl)c3[nH]c4c(c23)CN(C(=O)CO)CC4)c1 [TDI-008107] | 52.4 |
| Cn1cc(-c2cc(Cl)c(Cl)c3[nH]c4c(c23)CN(C(=O)CO)CC4)ccc1=O [TDI-008108] | 552 |
| COc1cnccc1-c1cc(Cl)c(Cl)c2[nH]c3c(c12)CN(C(=O)CO)CC3 [TDI-008109] | 2330 |
| COc1ncccc1-c1cc(Cl)c(Cl)c2[nH]c3c(c12)CN(C(=O)CO)CC3 [TDI-008110] | 2970 |
| CNc1ncc(-c2cc(Cl)c(Cl)c3[nH]c4c(c23)CN(C(=O)CO)CC4)cn1 [TDI-008111] | 268 |
| COc1ncc(-c2cc(Cl)c(Cl)c3[nH]c4c(c23)CN(C(=O)CO)CC4)cn1 [TDI-008112] | 201 |
| Cc1nc(C)c(-c2cc(Cl)c(Cl)c3[nH]c4c(c23)CN(C(=O)CO)CC4)s1 [TDI-008113] | 962 |
| COc1ncc(-c2cc(Cl)c(Cl)c3[nH]c4c(c23)CN(C(=O)CO)CC4)s1 [TDI-008114] | 62.2 |
| O=C(CO)N1CCc2[nH]c3c(Cl)c(Cl)cc(-c4cnn(C(F)F)c4)c3c2C1 [TDI-008115] | 45.1 |
| NC(=O)c1cccc(-c2cc(Cl)c(Cl)c3[nH]c4c(c23)CN(C(=O)CO)CC4)c1 [TDI-008118] | 76.8 |
| CN(C)c1cccc(-c2cc(Cl)c(Cl)c3[nH]c4c(c23)CN(C(=O)CO)CC4)c1 [TDI-008120] | 438 |
| CN(C)Cc1cc(Cl)c(Cl)c2[nH]c3c(c12)CN(C(=O)CO)CC3 [TDI-008437] | 350 |
